According to ChEMBL document CHEMBL1201862, “PubChem BioAssay data set” (2004):
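Where inhibition never reached the appropriate level, the endpoint shown equals the highest concentration tested. Otherwise, values were interpolated linearly from a five-concentration, 48-hour dose response in 96-well plates. GI50: concentration for 50% inhibition of growth.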 Active and inactive are the calls of the source. Cut-off read from the data, not from the text of the source: active = GI50 up to about 1.1 µM and inactive = higher.

Experiments:
Experiment in all cases: NCI-60 cell line screen, 48 h
[1] = tested on: 786-0
[2] = tested on: A498
[3] = tested on: A549
[4] = tested on: ACHN
[5] = tested on: BT-549
[6] = tested on: CAKI-1
[7] = tested on: CCRF-CEM
[8] = tested on: COLO 205
[9] = tested on: DU-145
[10] = tested on: EKVX
[11] = tested on: HCC 2998
[12] = tested on: HCT-116
[13] = tested on: HCT-15
[14] = tested on: HL-60
[15] = tested on: HOP-92
[16] = tested on: HT-29
[17] = tested on: Hs-578T
[18] = tested on: IGROV-1
[19] = tested on: K562
[20] = tested on: KM12
[21] = tested on: LOX IMVI
[22] = tested on: M14
[23] = tested on: MCF7
[24] = tested on: MDA-MB-231
[25] = tested on: MDA-MB-435
[26] = tested on: MDA-N
[27] = tested on: MOLT-4
[28] = tested on: Malme-3M
[29] = tested on: NCI-H226
[30] = tested on: NCI-H23
[31] = tested on: NCI-H460
[32] = tested on: NCI-H522
[33] = tested on: NCI/ADR-RES
[34] = tested on: OVCAR-3
[35] = tested on: OVCAR-4
[36] = tested on: OVCAR-5
[37] = tested on: OVCAR-8
[38] = tested on: PC-3
[39] = tested on: RPMI-8226
[40] = tested on: SF-268
[41] = tested on: SF-295
[42] = tested on: SF-539
[43] = tested on: SK-MEL-28
[44] = tested on: SK-MEL-2
[45] = tested on: SK-MEL-5
[46] = tested on: SK-OV-3
[47] = tested on: SN12C
[48] = tested on: SNB-19
[49] = tested on: SNB-75
[50] = tested on: SW-620
[51] = tested on: T47D
[52] = tested on: TK-10
[53] = tested on: U-251
[54] = tested on: UACC-257
[55] = tested on: UACC-62
[56] = tested on: UO-31
[57] = tested on: HOP-62
[58] = tested on: RXF 393

CC1=C(C(=S)Nc2ccc(Cl)c(C(=O)OC(C)C)c2)SCCO1
GI50 [1]: 16 µM (inactive)
GI50 [2]: 16.1 µM (inactive)
GI50 [3]: 31 µM (inactive)
GI50 [4]: 25.8 µM (inactive)
GI50 [5]: 17.7 µM (inactive)
GI50 [6]: 24.2 µM (inactive)
GI50 [7]: 18.2 µM (inactive)
GI50 [8]: 20 µM (inactive)
GI50 [9]: 20.3 µM (inactive)
GI50 [10]: 19.1 µM (inactive)
GI50 [11]: 14.7 µM (inactive)
GI50 [12]: 15.3 µM (inactive)
GI50 [13]: 17.1 µM
GI50 [14]: 17.5 µM (inactive)
GI50 [15]: 18.7 µM (inactive)
GI50 [16]: 18.6 µM (inactive)
GI50 [17]: 29.3 µM (inactive)
GI50 [18]: 16.6 µM (inactive)
GI50 [19]: 17.1 µM (inactive)
GI50 [20]: 19.4 µM (inactive)
GI50 [21]: 15.5 µM (inactive)
GI50 [22]: 18.8 µM (inactive)
GI50 [23]: 32.1 µM (inactive)
GI50 [24]: 18.2 µM (inactive)
GI50 [25]: 19.3 µM (inactive)
GI50 [26]: 18.6 µM (inactive)
GI50 [27]: 15.7 µM (inactive)
GI50 [28]: 20.3 µM (inactive)
GI50 [29]: 22.2 µM (inactive)
GI50 [30]: 20.6 µM (inactive)
GI50 [31]: 21.8 µM (inactive)
GI50 [32]: 21.4 µM (inactive)
GI50 [33]: 18.8 µM (inactive)
GI50 [34]: 22.8 µM (inactive)
GI50 [35]: 12.3 µM (inactive)
GI50 [36]: 34.6 µM (inactive)
GI50 [37]: 20 µM (inactive)
GI50 [38]: 16.9 µM (inactive)
GI50 [39]: 21.9 µM (inactive)
GI50 [40]: 25.1 µM (inactive)
GI50 [41]: 15.7 µM (inactive)
GI50 [42]: 18.7 µM (inactive)
GI50 [43]: 17.9 µM (inactive)
GI50 [44]: 21.5 µM (inactive)
GI50 [45]: 16.9 µM (inactive)
GI50 [46]: 20.4 µM (inactive)
GI50 [47]: 16.7 µM (inactive)
GI50 [48]: 16.7 µM (inactive)
GI50 [49]: 20.1 µM (inactive)
GI50 [50]: 20.2 µM (inactive)
GI50 [51]: 19.6 µM (inactive)
GI50 [52]: 22.2 µM (inactive)
GI50 [53]: 17.6 µM (inactive)
GI50 [54]: 18.5 µM (inactive)
GI50 [55]: 15.5 µM (inactive)
GI50 [56]: 14.9 µM (inactive)

O[C@@H]1[C@H](OC2c3ccccc3-c3ccccc32)[C@H](OCc2ccccc2)[C@@H]2OC[C@H]1O2
GI50 [1]: 19.7 µM (inactive)
GI50 [2]: > 100 µM (inactive)
GI50 [3]: 34.6 µM (inactive)
GI50 [4]: > 100 µM (inactive)
GI50 [5]: > 100 µM (inactive)
GI50 [6]: > 100 µM (inactive)
GI50 [7]: 42.4 µM (inactive)
GI50 [8]: > 100 µM (inactive)
GI50 [9]: > 100 µM (inactive)
GI50 [10]: > 100 µM (inactive)
GI50 [11]: 75.7 µM (inactive)
GI50 [12]: 41.5 µM (inactive)
GI50 [13]: > 100 µM
GI50 [14]: > 100 µM (inactive)
GI50 [57]: 25.8 µM (inactive)
GI50 [15]: > 100 µM (inactive)
GI50 [16]: > 100 µM (inactive)
GI50 [17]: 43.4 µM (inactive)
GI50 [18]: > 100 µM (inactive)
GI50 [19]: > 100 µM (inactive)
GI50 [20]: > 100 µM (inactive)
GI50 [21]: > 100 µM (inactive)
GI50 [22]: > 100 µM (inactive)
GI50 [23]: > 100 µM (inactive)
GI50 [24]: 51.3 µM (inactive)
GI50 [25]: > 100 µM (inactive)
GI50 [26]: > 100 µM (inactive)
GI50 [27]: 34.1 µM (inactive)
GI50 [28]: > 100 µM (inactive)
GI50 [29]: > 100 µM (inactive)
GI50 [30]: > 100 µM (inactive)
GI50 [32]: > 100 µM (inactive)
GI50 [33]: > 100 µM (inactive)
GI50 [34]: > 100 µM (inactive)
GI50 [35]: 91 µM (inactive)
GI50 [36]: > 100 µM (inactive)
GI50 [37]: 39.6 µM (inactive)
GI50 [38]: 63.2 µM (inactive)
GI50 [39]: 71.9 µM (inactive)
GI50 [58]: > 100 µM (inactive)
GI50 [40]: 57.1 µM (inactive)
GI50 [41]: > 100 µM (inactive)
GI50 [42]: 23 µM (inactive)
GI50 [43]: > 100 µM (inactive)
GI50 [44]: > 100 µM (inactive)
GI50 [45]: > 100 µM (inactive)
GI50 [47]: > 100 µM (inactive)
GI50 [48]: 58.2 µM (inactive)
GI50 [50]: > 100 µM (inactive)
GI50 [51]: > 100 µM (inactive)
GI50 [52]: > 100 µM (inactive)
GI50 [53]: 43.3 µM (inactive)
GI50 [54]: > 100 µM (inactive)
GI50 [55]: > 100 µM (inactive)
GI50 [56]: > 100 µM (inactive)
